In US8450479B2, “3-substituted-4-oxo-3,4-dihydro-imidazo[5,1-d][1,2,3,5-tetrazine-8-carboxylic acid amides and their use” (Pharminox Limited, priority 2007, dated 2013):
“And” between values parts separate entries of the source, which are not always exact repeats. Identical values can stand only once. Like-named read-outs stand apart in the source and are kept apart here.

Assays:
Test in all cases: MTT assay for 7-day toxicity assay
Assay type in all cases: cell-based
[1] = test system: Glioma SNB19VR (MGMT−) (TMZ resistant)
[2] = test system: Glioma U373VR (MGMT low) (TMZ resistant)
[3] = test system: Colon HT29 (MMR proficient)
Method in brief: (§1)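 Cells seeded at 400 cells/well, attached overnight, then exposed to compound at 0.5–1000 μM final for 7 days at 37 °C, 5% CO2. Viability read by MTT, with a day-0 plate fixed at drug addition as reference.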

[4] = test system: Melanoma SKMEL-28 (MMR proficient)
Method in brief: as §1

[5] = test system: Breast MCF-7 (MMR proficient)
Method in brief: as §1

[6] = 168 h, Glioma SNB19VR (MGMT−, TMZ resistant), 7-day MTT, single determinations, read-out: GI50
[7] = 168 h, Glioma U373VR (MGMT low, TMZ resistant), 7-day MTT, single determinations, read-out: GI50
[8] = Homo sapiens, HT-29, 168 h, Colon HT29 (MMR proficient), 7-day MTT, single determinations, read-out: GI50
[9] = Homo sapiens, SK-MEL-28, 168 h, Melanoma SKMEL-28 (MMR proficient), 7-day MTT, single determinations, read-out: GI50
[10] = Glioma SNB19VR (MGMT−, TMZ resistant), 7-day MTT, single determinations, read-out: GI50
[11] = Glioma U373VR (MGMT low, TMZ resistant), 7-day MTT, single determinations, read-out: GI50
[12] = Melanoma SKMEL-28 (MMR proficient), 7-day MTT, single determinations, read-out: GI50
[13] = Homo sapiens, MCF7, Breast MCF-7 (MMR proficient), read-out: GI50
[14] = Colon HT29 (MMR proficient), read-out: GI50
[15] = Homo sapiens, HT-29, Colon HT29 (MMR proficient), read-out: GI50
[16] = Glioma SNB19VR (MGMT−) (TMZ resistant), read-out: GI50
[17] = Homo sapiens, SK-MEL-28, Melanoma SKMEL-28 (MMR proficient), read-out: GI50
[18] = Melanoma SKMEL-28 (MMR proficient), read-out: GI50
[19] = Glioma U373VR (MGMT low) (TMZ resistant), read-out: GI50

For `C[C@H](c1ccccc1)n1nnc2c(C(N)=O)ncn2c1=O` [BB-001, (R)-3-(-1-Phenylethyl)-8-carbamoylimidazotetrazin-4-one], the GI50 [1, 6] was 46.6 µM and the GI50 [2, 7] was 63.7 µM.

`C#CCn1nnc2c(C(N)=O)ncn2c1=O` [EE-001, 3-Propargyl-8-carbamoylimidazotetrazin-4-one] was tested, and the GI50 [3, 8] was 21.1 µM, the GI50 [1, 6] was 54.9 µM and the GI50 [2, 7] was 40.3 µM. It also gave a GI50 [4, 9] of 48.5 µM.

`CCOC(=O)Cn1nnc2c(C(N)=O)ncn2c1=O` [PX-016] gave a GI50 [1, 6] of 37.6 µM, a GI50 [1, 10] of 62 µM and a GI50 [2, 7] of 57.5 µM. It also gave a GI50 [2, 11] of 71.1 µM, a GI50 [4, 9] of 92.8 µM and a GI50 [4, 12] of 91.3 µM.

For `COCn1nnc2c(C(N)=O)ncn2c1=O` [PX-020], the GI50 [5, 13] was 33.4 µM, the GI50 [3, 14] was 49.8 µM and the GI50 [3, 15] was 59.4 µM. For the same compound, the GI50 [1, 16] was 25.8 µM and 28.9 µM and 27.8 µM and 29.2 µM and 16.8 µM, the GI50 [4, 17] was 56.1 µM and the GI50 [4, 18] was 55.1 µM.

Work on `C[Si](C)(C)CCOCn1nnc2c(C(N)=O)ncn2c1=O` [PX-021] yielded a GI50 [5, 13] of 30.3 µM, a GI50 [3, 14] of 55.8 µM and a GI50 [3, 15] of 58.5 µM. The GI50 [4, 17] was 47.1 µM and the GI50 [4, 18] was 56.8 µM.

`NC(=O)c1ncn2c(=O)n(CCl)nnc12` [PX-030] was tested, and the GI50 [2, 19] was 28.9 µM and 34.5 µM.

`Cn1nnc2c(C(N)=O)ncn2c1=O` [TMZ, 3-Methyl-4-oxo-3,4-dihydro-imidazo[5,1-d][1,2,3,5]tetrazine-8-carboxylic acid amide, reference compound] showed a GI50 ([5]; Breast MCF-7 (MMR proficient), 7-day MTT, single determinations) of 424 µM, a GI50 ([5]; Homo sapiens, MCF7, 168 h, Breast MCF-7 (MMR proficient), 7-day MTT, single determinations) of 342 µM and a GI50 ([5]; Homo sapiens, MCF7, read-out: TMZ GI50 Average, Breast MCF-7 (MMR proficient), average of Table 1) of 383 µM. The GI50 ([5]; Homo sapiens, MCF7, Breast MCF-7 (MMR proficient)) was 383 µM, the GI50 ([3]; Colon HT29 (MMR proficient), 7-day MTT, single determinations, read-out: GI50) was 578 µM and the GI50 [3, 8] was 702 µM. For the same compound, the GI50 ([3]; Homo sapiens, HT-29, Colon HT29 (MMR proficient), average of Table 1, read-out: TMZ GI50 Average) was 640 µM, the GI50 [3, 15] was 640 µM and the GI50 [1, 6] was 314 µM. The GI50 [1, 16] was 280 µM, the GI50 [1, 10] was 251 µM and 275 µM and 282 µM (2×) and 294 µM and 263 µM and the GI50 ([1]; Glioma SNB19VR (MGMT−, TMZ resistant), average of Table 1, read-out: TMZ GI50 Average) was 280 µM. The GI50 [2, 7] was 316 µM, the GI50 [2, 19] was 289 µM and the GI50 [2, 11] was 293 µM and 234 µM and 328 µM and 299 µM and 258 µM and 326 µM and 257 µM. The GI50 ([2]; Glioma U373VR (MGMT low, TMZ resistant), average of Table 1, read-out: TMZ GI50 Average) was 289 µM, the GI50 [4, 9] was 419 µM and the GI50 ([4]; Homo sapiens, SK-MEL-28, Melanoma SKMEL-28 (MMR proficient), average of Table 1, read-out: TMZ GI50 Average) was 431 µM. For the same compound, the GI50 [4, 17] was 431 µM and the GI50 [4, 12] was 443 µM.
